pIC50: −log10 of the molar value. “And” between values parts separate entries of the source, which are not always exact repeats. Identical values can stand only once. Like-named read-outs stand apart in the source and are kept apart here.
Columns and labels:
Ba/F3 cells = test: Growth inhibition assay in Ba/F3 cells (CellTiter-Glo, 72 h); type: cell-based
HBECp53-EV cells = test: Growth inhibition (alamarBlue, 96 h); type: cell-based, human; settings: for raw viability signal (Source Data Fig. 3b-c): HBEC-EV, replicate sets
LC-2/ad cells = test: Growth inhibition (alamarBlue, 96 h); type: cell-based, human; settings: for raw viability signal (Source Data Fig. 3b-c): LC-2/Ad, replicate sets
LUAD-0057BS1 cells = test: Growth inhibition (alamarBlue, 96 h); type: cell-based, human; settings: for raw viability signal (Source Data Fig. 3b-c): LUAD-0057BS1, replicate sets
MMNK1 cholangiocytes = test: Growth inhibition (alamarBlue, 96 h); type: cell-based, human; settings: for raw viability signal (Source Data Fig. 3b-c): MMNK, replicates
[1] = Animal weight of tumor-bearing mice

Structure (SMILES): COc1cc2c(Nc3ccc(Br)cc3F)ncnc2cc1OCC1CCN(C)CC1 [Vandetanib]
- GI50 (Ba/F3 cells; Ba/F3 (parental), replicate Sets 1-3, read-out: GI50): 7.33 µM and 9.12 µM
- GI50 (Ba/F3 cells; Mus musculus, BaF3, 72 h, Ba/F3, CellTiter-Glo, 72 h, read-out: GI50 value (Mean ± SD)): 7.49 µM
- GI50 (Ba/F3 cells; Mus musculus, BaF3, Ba/F3 (parental), replicate Sets 1-3, read-out: GI50): 6.02 µM
- raw viability signal (Source Data Fig. 3b-c) (HBECp53-EV cells; 0.01 nM): 25097.6 and 25887.6 and 17676.4
- raw viability signal (Source Data Fig. 3b-c) (HBECp53-EV cells; 0.1 nM): 26759 and 26118.3 and 17425.7
- raw viability signal (Source Data Fig. 3b-c) (HBECp53-EV cells; 1 nM): 23471.2 and 28489.7 and 18981.5
- raw viability signal (Source Data Fig. 3b-c) (HBECp53-EV cells; 10 nM): 23607.2 and 26549.6 and 18321.2
- raw viability signal (Source Data Fig. 3b-c) (HBECp53-EV cells; 100 nM): 25750 and 25003
- raw viability signal (Source Data Fig. 3b-c) (HBECp53-EV cells; 1000 nM): 22139.5 and 31238.9 and 18759.8
- raw viability signal (Source Data Fig. 3b-c) (HBECp53-EV cells; 10000 nM): 1428.02 and 2282.52 and 1103.83
- pIC50 (HBECp53-EV cells; Homo sapiens, read-out: IC50 for Inhibition of Growth (95% CI), HBECp53-EV, alamarBlue, 96 h): 5.45
- pIC50 (LC-2/ad cells; Homo sapiens, read-out: IC50 for Inhibition of Growth (95% CI), LC-2/ad, alamarBlue, 96 h): 7.21
- raw viability signal (Source Data Fig. 3b-c) (LC-2/ad cells; 0.01 nM): 12607.4 and 20233.4
- raw viability signal (Source Data Fig. 3b-c) (LC-2/ad cells; 0.1 nM): 13108.5 and 20488.5
- raw viability signal (Source Data Fig. 3b-c) (LC-2/ad cells; 1 nM): 11956.2 and 19814.6
- raw viability signal (Source Data Fig. 3b-c) (LC-2/ad cells; 10 nM): 11578.8 and 17158.6
- raw viability signal (Source Data Fig. 3b-c) (LC-2/ad cells; 100 nM): 4528.4 and 9691.17
- raw viability signal (Source Data Fig. 3b-c) (LC-2/ad cells; 1000 nM): 1439.52 and 1771.38
- raw viability signal (Source Data Fig. 3b-c) (LC-2/ad cells; 10000 nM): 850.396
- pIC50 (LUAD-0057BS1 cells; Homo sapiens, read-out: IC50 for Inhibition of Growth (95% CI), LUAD-0057BS1, alamarBlue, 96 h): 6.44
- raw viability signal (Source Data Fig. 3b-c) (LUAD-0057BS1 cells; 0.01 nM): 17034.2 and 23597.8
- raw viability signal (Source Data Fig. 3b-c) (LUAD-0057BS1 cells; 0.1 nM): 16283.3 and 21948.2
- raw viability signal (Source Data Fig. 3b-c) (LUAD-0057BS1 cells; 1 nM): 16965.6 and 22300.3
- raw viability signal (Source Data Fig. 3b-c) (LUAD-0057BS1 cells; 10 nM): 14389.1 and 16776.9 and 22078.9
- raw viability signal (Source Data Fig. 3b-c) (LUAD-0057BS1 cells; 100 nM): 13528.1 and 13127 and 19841.4
- raw viability signal (Source Data Fig. 3b-c) (LUAD-0057BS1 cells; 1000 nM): 5066.49 and 6132.7 and 5277.44
- raw viability signal (Source Data Fig. 3b-c) (LUAD-0057BS1 cells; 10000 nM): 837.183 and 963.777 and 796.086
- pIC50 (MMNK1 cholangiocytes; Homo sapiens, read-out: IC50 for Inhibition of Growth (95% CI), MMNK1, alamarBlue, 96 h): 5.72
- raw viability signal (Source Data Fig. 3b-c) (MMNK1 cholangiocytes; 0.01 nM): 15966.6 and 15969.8
- raw viability signal (Source Data Fig. 3b-c) (MMNK1 cholangiocytes; 0.1 nM): 15836.6
- raw viability signal (Source Data Fig. 3b-c) (MMNK1 cholangiocytes; 1 nM): 15572.3
- raw viability signal (Source Data Fig. 3b-c) (MMNK1 cholangiocytes; 10 nM): 14924.4 and 14679.1
- raw viability signal (Source Data Fig. 3b-c) (MMNK1 cholangiocytes; 100 nM): 14912.5 and 14740.1
- raw viability signal (Source Data Fig. 3b-c) (MMNK1 cholangiocytes; 1000 nM): 12405.8
- raw viability signal (Source Data Fig. 3b-c) (MMNK1 cholangiocytes; 10000 nM): 1136.86 and 1108.37
- Animal Weight ([1]; ECLC5B xenograft, P = 0.01, animals killed early): significant weight loss
- Animal Weight ([1]; ECLC5 Xenografts, 100 mg/kg QD, treatment day 7, individual animals, 100 mg/kg): 26 g and 24 g and 22 g (3×)
- Animal Weight ([1]; ECLC5 Xenografts, 100 mg/kg QD, treatment day 11, individual animals, 100 mg/kg): 25 g and 23 g and 22 g (3×)
- Animal Weight ([1]; ECLC5 Xenografts, 100 mg/kg QD, treatment day 14, individual animals, 100 mg/kg): 24 g and 22 g (2×) and 21 g (2×)
- Animal Weight ([1]; ECLC5 Xenografts, 100 mg/kg QD, treatment day 19, individual animals, 100 mg/kg): 22 g (2×) and 21 g (3×)
- Animal Weight ([1]; ECLC5 Xenografts, 100 mg/kg QD, treatment day 22, individual animals): 20 g
- Animal Weight ([1]; ECLC5 Xenografts, 100 mg/kg QD, treatment day 25, individual animals): 20 g
- Animal Weight ([1]; LUAD-0057AS1 PDX, 50 mg per kg QD, P = 0.0015): significant reduction in animal weight
- Animal Weight ([1]; LUAD-0057AS1 PDX, 50 mg/kg QD, treatment day 0, individual animals, 50 mg/kg): 24 g (3×) and 23 g (3×) and 25 g (2×)
- Animal Weight ([1]; LUAD-0057AS1 PDX, 50 mg/kg QD, treatment day 3, individual animals, 50 mg/kg): 21 g (6×) and 22 g and 23 g
- Animal Weight ([1]; LUAD-0057AS1 PDX, 50 mg/kg QD, treatment day 7, individual animals, 50 mg/kg): 21 g (3×) and 23 g and 22 g (3×) and 20 g
- Animal Weight ([1]; LUAD-0057AS1 PDX, 50 mg/kg QD, treatment day 10, individual animals, 50 mg/kg): 20 g (2×) and 22 g (2×) and 21 g (4×)
- Animal Weight ([1]; LUAD-0057AS1 PDX, 50 mg/kg QD, treatment day 14, individual animals, 50 mg/kg): 20 g (2×) and 21 g (6×)
- Animal Weight ([1]; LUAD-0057AS1 PDX, 50 mg/kg QD, treatment day 19, individual animals, 50 mg/kg): 20 g (4×) and 19 g (2×) and 21 g (2×)
- Animal Weight ([1]; LUAD-0057AS1 PDX, 50 mg/kg QD, treatment day 23, individual animals, 50 mg/kg): 19 g and 20 g
- Animal Weight ([1]; NIH-3T3-CCDC6::RET xenografts, 100 mg/kg QD, day 0, 100 mg/kg): 22 g and 26 g and 24 g and 21 g and 20 g
- Animal Weight ([1]; NIH-3T3-CCDC6::RET xenografts, 100 mg/kg QD, day 2, 100 mg/kg): 22 g and 23 g and 21 g and 19 g
- Animal Weight ([1]; NIH-3T3-CCDC6::RET xenografts, 100 mg/kg QD, day 5, 100 mg/kg): 22 g and 26 g and 24 g and 20 g
- Animal Weight ([1]; NIH-3T3-CCDC6::RET xenografts, 100 mg/kg QD, day 8, 100 mg/kg): 22 g and 25 g and 23 g and 21 g and 19 g

Source: paper PMC10518257 (Nature Cancer, 2023)
